From US8183201B2 (priority 2006, dated 2012)
Read-outs that look alike come from different tables or passages of the source.

Assays:
[1] = biological target: platelet aggregation (Homo sapiens, UniProt P05106+P08514); assay type: cell-based
[2] = test system: osteoclast precursors (bone marrow hematopoietic cells); assay type: cell-based, SD rats; conditions: read-out: IC50 Osteoclastogenesis
[3] = test system: ovariectomized (OVX) mice; design: species or system ICR mice; conditions: mouse, in vivo, po, 1.5 mg/kg
[4] = biological target: integrin αvβ3 (UniProt P05106+P06756); assay type: cell-based
[5] = biological target: T1, integrin αIIbβ3 (Homo sapiens, UniProt P05106+P08514); assay type: cell-based
T1 construct: host or cells: CHO (CHO-αIIbβ3)

[6] = mouse, in vivo
[7] = test system: ovariectomized (OVX) rats; conditions: rat, in vivo, po, 1.5 mg/kg
[8] = biological target: T2, integrin α5β1 (Homo sapiens, UniProt P05556+P08648); assay type: cell-based
T2 construct: Human erythroleukemia K562 cells were purchased from ATCC; host or cells: K562
T2 sequence (P08648 42-894 limits assumed): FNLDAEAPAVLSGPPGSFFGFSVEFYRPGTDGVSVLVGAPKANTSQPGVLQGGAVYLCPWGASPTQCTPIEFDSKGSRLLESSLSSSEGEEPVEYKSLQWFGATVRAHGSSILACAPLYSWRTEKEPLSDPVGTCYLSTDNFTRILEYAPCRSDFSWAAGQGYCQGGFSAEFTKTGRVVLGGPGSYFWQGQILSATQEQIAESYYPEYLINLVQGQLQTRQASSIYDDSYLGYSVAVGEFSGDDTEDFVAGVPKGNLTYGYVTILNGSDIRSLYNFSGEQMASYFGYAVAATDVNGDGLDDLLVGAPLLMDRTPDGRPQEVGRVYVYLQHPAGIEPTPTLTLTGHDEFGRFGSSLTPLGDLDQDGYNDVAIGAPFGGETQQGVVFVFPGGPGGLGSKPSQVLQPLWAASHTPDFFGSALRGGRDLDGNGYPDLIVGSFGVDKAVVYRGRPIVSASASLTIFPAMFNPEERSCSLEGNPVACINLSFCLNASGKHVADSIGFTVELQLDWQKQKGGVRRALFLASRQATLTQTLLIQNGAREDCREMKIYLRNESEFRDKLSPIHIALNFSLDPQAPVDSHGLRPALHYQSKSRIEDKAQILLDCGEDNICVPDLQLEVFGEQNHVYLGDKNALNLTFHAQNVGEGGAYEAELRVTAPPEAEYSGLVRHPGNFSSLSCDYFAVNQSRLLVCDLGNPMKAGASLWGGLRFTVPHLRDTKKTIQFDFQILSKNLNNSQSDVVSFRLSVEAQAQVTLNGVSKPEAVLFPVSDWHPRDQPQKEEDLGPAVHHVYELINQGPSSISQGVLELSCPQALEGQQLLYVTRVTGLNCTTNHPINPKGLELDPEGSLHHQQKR
T2 sequence (P08648 895-1049 partner limits assumed): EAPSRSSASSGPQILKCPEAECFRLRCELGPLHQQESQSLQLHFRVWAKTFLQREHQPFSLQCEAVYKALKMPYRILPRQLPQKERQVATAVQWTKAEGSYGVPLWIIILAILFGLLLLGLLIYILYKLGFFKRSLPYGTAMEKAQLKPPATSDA
T2 sequence (P05556 21-798): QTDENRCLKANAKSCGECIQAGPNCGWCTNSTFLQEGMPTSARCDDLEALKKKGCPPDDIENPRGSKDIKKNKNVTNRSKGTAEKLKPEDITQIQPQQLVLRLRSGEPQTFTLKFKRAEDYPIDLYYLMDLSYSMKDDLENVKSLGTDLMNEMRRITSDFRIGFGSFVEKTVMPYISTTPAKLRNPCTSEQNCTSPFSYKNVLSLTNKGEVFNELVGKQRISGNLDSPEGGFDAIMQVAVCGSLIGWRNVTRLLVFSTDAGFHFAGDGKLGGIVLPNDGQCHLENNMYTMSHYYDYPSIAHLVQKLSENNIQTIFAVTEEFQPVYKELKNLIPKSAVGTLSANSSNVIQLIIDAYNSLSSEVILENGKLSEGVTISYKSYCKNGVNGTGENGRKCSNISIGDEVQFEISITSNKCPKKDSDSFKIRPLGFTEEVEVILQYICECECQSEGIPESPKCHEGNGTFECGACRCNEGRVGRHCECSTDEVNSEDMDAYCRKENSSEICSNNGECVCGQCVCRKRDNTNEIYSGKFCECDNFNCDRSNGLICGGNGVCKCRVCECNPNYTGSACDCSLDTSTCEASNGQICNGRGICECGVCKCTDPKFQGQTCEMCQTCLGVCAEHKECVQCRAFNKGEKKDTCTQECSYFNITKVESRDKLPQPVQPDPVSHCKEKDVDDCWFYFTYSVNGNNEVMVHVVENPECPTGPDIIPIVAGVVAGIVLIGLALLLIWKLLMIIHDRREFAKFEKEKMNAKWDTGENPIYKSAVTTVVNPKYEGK

integrin αvβ3, sequence (P06756 31-1048): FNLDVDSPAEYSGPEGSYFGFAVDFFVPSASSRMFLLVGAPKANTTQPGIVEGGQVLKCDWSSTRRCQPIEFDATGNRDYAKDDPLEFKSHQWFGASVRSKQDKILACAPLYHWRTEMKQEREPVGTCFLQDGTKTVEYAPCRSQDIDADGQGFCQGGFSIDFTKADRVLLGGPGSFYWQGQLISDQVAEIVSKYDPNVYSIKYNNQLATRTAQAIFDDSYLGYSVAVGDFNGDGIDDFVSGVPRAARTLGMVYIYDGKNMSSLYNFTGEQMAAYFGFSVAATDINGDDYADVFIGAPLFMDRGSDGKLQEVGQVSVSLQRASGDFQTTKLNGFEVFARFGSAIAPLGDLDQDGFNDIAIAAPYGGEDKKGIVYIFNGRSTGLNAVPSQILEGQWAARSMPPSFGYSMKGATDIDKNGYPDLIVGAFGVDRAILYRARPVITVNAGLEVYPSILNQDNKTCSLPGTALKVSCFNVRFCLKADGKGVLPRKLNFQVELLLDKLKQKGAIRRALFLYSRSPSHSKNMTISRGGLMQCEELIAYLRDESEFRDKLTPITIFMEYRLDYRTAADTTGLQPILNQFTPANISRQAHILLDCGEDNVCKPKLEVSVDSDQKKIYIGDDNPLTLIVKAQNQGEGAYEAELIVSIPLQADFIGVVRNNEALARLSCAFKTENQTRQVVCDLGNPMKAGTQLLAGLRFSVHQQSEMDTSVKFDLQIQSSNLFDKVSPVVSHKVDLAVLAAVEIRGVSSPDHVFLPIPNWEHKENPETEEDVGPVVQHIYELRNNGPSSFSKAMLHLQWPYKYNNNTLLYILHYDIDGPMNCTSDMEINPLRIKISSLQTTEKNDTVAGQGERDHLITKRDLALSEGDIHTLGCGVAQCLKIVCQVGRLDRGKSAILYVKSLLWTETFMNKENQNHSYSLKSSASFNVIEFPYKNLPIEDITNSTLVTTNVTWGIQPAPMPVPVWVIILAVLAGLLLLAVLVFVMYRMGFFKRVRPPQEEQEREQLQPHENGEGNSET
integrin αvβ3, sequence (P05106 27-788): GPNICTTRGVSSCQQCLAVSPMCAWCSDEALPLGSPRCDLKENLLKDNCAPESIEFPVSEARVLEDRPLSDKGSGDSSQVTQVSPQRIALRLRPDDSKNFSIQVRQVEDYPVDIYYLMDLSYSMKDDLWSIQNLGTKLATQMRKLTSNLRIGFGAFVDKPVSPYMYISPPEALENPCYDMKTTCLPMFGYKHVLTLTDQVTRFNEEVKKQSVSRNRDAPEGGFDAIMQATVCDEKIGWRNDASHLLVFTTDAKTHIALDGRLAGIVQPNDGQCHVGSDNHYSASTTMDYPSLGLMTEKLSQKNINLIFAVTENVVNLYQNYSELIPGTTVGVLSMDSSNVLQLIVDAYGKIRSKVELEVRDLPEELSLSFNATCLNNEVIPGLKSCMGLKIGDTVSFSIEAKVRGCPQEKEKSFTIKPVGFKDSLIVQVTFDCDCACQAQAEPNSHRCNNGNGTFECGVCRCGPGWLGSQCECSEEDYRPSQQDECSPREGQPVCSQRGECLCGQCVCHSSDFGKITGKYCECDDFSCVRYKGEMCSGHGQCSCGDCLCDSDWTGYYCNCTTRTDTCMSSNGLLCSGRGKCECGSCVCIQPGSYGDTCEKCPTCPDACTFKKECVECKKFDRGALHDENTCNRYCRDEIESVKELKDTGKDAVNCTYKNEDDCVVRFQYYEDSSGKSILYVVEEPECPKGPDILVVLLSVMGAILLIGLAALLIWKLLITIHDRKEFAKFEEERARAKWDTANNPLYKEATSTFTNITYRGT

rhodostomin [reference compound]
IC50 [1]: 83 nM
IC50 [2]: 5.52 nM
BMC [3]: 0.619 ± 0.006 g
BMD [3]: 0.090 ± 0.001 g/cm^2
C-terminal telopeptide of COL(1)α1 chain [3]: 397 ± 13.6 ng/mL
IC50 ([4]; read-out: IC50 αvβ3): 13 nM
IC50 ([4]; read-out: IC50 αvβ3/Fg): 13 nM
IC50 ([5]; read-out: IC50 αIIbβ3): 21 nM
IC50 ([5]; read-out: IC50 αllbβ3/Fg): 21 nM
effect on tail bleeding (clotting) time [6]: pronounced effect in prolonging the clotting time

RID: rhodostomin variant with RGD motif ^48Pro-Arg-Ile-Asp-Met-Pro^53, SEQ ID NO: 39
IC50 [2]: 5.82 nM
BMC [3]: 0.622 ± 0.004 g
BMD [3]: 0.091 ± 0.001 g/cm^2
C-terminal telopeptide of COL(1)α1 chain [3]: 391 ± 12 ng/mL

NCCCC(O)(P(=O)(O)O)P(=O)(O)O [Alendronate, alendronate, reference compound]
ovariectomy-induced increase in osteoclast activity (serum C-terminal telopeptide of type-I collagen) [7]: reversed the ovariectomy-induced increase in osteoclast activity

PRGDDL: rhodostomin variant with RGD motif ^48Pro-Arg-Gly-Asp-Asp-Leu^53, SEQ ID NO: 33
IC50 [2]: 3.15 nM

PRLDDL: rhodostomin variant with RGD motif ^48Pro-Arg-Leu-Asp-Asp-Leu^53, SEQ ID NO: 37
BMC [3]: 0.563 ± 0.056 g
BMD [3]: 0.091 ± 0.002 g/cm^2
C-terminal telopeptide of COL(1)α1 chain [3]: 410 ± 25.1 ng/mL

ARGDDL: rhodostomin variant with RGD motif ^48Ala-Arg-Gly-Asp-Asp-Leu^53, SEQ ID NO: 32
IC50 [2]: 8.02 nM
BMC [3]: 0.624 ± 0.007 g
BMD [3]: 0.093 ± 0.001 g/cm^2
C-terminal telopeptide of COL(1)α1 chain [3]: 389 ± 16.4 ng/mL

PGP: rhodostomin variant having a RGD motif variant ^48PRGDGP^53, SEQ ID NO: 42
IC50 [1]: 283 nM
IC50 ([8]; read-out: IC50 α5β1): 4000 nM
IC50 ([8]; read-out: IC50 α5β1/Fn): 3460 nM
IC50 ([5]; read-out: IC50 αIIbβ3): 500 nM
IC50 ([5]; read-out: IC50 αllbβ3/Fg): 2590 nM
